Laboratory results reported in US7667040B2, “Azacyclic ethynyl derivatives” (Neurosearch A/S, priority 2002, dated 2010).
Structures can show the parent of a compound that is named as a salt. Where two headings read alike, the source gives them in different places.

Assays:
[1] = target: T1, α7-subtype of nicotinic receptors (Rattus norvegicus, UniProt Q05941); assay: In vitro inhibition of 3H-α-bungarotoxine binding in rat brain
T1 construct: Cerebral cortices from male Wistar rats (150-250 g) are homogenised; from tissue; host or cells: rat cerebral cortex membrane homogenate

[2] = target: T2, serotonin transporter (Rattus norvegicus, UniProt P31652); assay: In vitro inhibition of 3H-5-hydroxytryptamine uptake in cortical synaptosomes; assay type: biochemical; conditions: 1 nM 3H-5-HT, 30 minutes at 37° C.
T2 construct: Cerebral cortices from male Wistar rats (150-200 g) are homogenized; from tissue; host or cells: rat cerebral cortex synaptosomes (P2 pellet)
Description: In vitro Inhibition of ^3H-5-Hydroxytryptamine Uptake in Cortical Synaptosomes
Serotonin transporters/uptake sites on nerve terminals presumably function to terminate neuronal signaling by removing serotonin from the synaptic cleft. The activity of the serotonin transporter integral protein can be measured in vitro by synaptosomal uptake of ^3H-5-hydroxytryptamine (5-HT, serotonin).
Preparations are performed at 0-4° C. Cerebral cortices from male Wistar rats (150-200 g) are homogenized for 5-10 seconds in 100 volumes of ice-cold 0.32 M sucrose containing 1 mM pargyline, using a motor driven teflon pestle in a glass homogenizing vessel. Monoamine oxidase activity is inhibited in the presence of pargyline.
The homogenate is subjected to centrifugation at 1000×g for 10 minutes. The resulting supernatant is then centrifuged at 27,000×g for 50 minutes and the supernatant is discarded. The pellet (P2) is re-suspended in oxygenated (equilibrated with an atmosphere of 96% O2: 4% CO2 for at least 30 minutes) Krebs-Ringer incubation buffer (1000 ml per g of original tissue) at pH 7.2 containing 122 mM NaCl, 0.16 mM EDTA, 4.8 mM KCl, 12.7 mM Na2HPO4, 3.0 mM NaH2PO4, 1.2 mM MgSO4, 1 mM CaCl2, 10 mM glucose and 1 mM ascorbic acid.
Aliquots of 4.0 ml tissue suspension are added to 100 μl, of test solution and 100 μl of ^3H-5-HT (1 nM, final concentration), mixed and incubated for 30 minutes at 37° C. Non-specific uptake is determined using Citalopram (1 μM, final concentration, available from Lundbeck, Denmark).
After incubation, the samples are poured directly onto Whatman GF/C glass fibre filters under suction. The filters are washed three times with 5 ml of ice-cold 0.9% (w/v) NaCl solution.
The amount of radioactivity on the filters is determined by conventional liquid scintillation counting. Specific uptake is calculated as the difference between total uptake and non-specific uptake.
25-75% inhibition of specific binding must be obtained, before calculation of an IC50.
The test value is given as IC50 (the concentration (μM) of the test substance which inhibits the specific binding of ^3H-5-HT by 50%).

[3] = rat cerebral cortex homogenate, 2 nM 3H-α-bungarotoxine, 2 hours at 37° C., read-out: Inhibition of 3H-α-Bungarotoxine Binding IC50

T2 sequence (P31652 whole entry): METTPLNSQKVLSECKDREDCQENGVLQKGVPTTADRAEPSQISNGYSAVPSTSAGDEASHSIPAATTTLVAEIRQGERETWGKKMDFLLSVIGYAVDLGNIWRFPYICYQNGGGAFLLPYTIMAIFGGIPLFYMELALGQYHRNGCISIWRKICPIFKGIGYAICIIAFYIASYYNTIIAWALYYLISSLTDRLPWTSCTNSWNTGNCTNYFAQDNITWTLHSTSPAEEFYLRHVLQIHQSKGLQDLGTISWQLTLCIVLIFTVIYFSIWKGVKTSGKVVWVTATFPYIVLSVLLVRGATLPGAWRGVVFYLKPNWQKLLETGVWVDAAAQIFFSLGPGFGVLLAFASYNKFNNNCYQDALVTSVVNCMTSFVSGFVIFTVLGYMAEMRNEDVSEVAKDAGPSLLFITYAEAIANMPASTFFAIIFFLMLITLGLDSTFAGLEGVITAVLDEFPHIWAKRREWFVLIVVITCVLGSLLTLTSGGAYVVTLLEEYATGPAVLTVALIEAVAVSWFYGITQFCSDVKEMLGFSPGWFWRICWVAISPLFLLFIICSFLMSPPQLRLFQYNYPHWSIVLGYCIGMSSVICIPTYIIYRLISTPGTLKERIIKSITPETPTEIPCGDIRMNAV
T1 sequence (Q05941 23-502): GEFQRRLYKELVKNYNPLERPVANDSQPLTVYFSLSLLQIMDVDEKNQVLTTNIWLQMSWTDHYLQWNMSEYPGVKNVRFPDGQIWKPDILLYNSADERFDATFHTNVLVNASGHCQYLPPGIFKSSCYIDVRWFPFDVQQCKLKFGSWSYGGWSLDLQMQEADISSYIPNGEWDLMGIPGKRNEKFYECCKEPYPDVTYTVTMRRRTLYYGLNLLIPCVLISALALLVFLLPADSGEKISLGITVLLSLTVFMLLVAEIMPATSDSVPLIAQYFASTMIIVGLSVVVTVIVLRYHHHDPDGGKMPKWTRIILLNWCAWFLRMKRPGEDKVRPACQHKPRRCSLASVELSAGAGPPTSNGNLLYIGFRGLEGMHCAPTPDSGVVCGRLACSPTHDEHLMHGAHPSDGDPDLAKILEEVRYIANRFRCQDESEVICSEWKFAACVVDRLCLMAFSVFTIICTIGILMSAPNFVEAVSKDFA

Work on `CN1C2C=C(C#Cc3ccccc3)CC1CC2` (racemic) [Compound 1, (±)-8-Methyl-3-phenyletynyl-8-azabicyclo[3.2.1]oct-2-ene fumaric acid salt] yielded an IC50 [1] of 320 nM and an IC50 [2] of 110 nM.

For `C[N+]1(C)C2C=C(C#Cc3ccccc3)CC1CC2` (racemic) [Compound B1, (±)-8,8-Dimethyl-3-phenyletynyl-8-azabicyclo[3.2.1]oct-2-ene iodide salt], the IC50 [1, 3] was 2 nM.

`C(#Cc1ccccc1)C1=CN2CCC1CC2` [Compound A1, (±)-3-Phenyletynyl-quinuclidin-2-ene] was tested, and the IC50 [1, 3] was 180 nM and the IC50 [2] was 420 nM.

`C(#Cc1ccccc1)C1=CC2CCC(C1)N2` (racemic) [Compound C1, (±)-8-H-3-Phenyletynyl-8-azabicyclo[3.2.1]oct-2-ene fumaric acid salt] showed an IC50 [2] of 99 nM.

Work on `C[N+]12C=C(C#Cc3ccccc3)C(CC1)CC2` (racemic) [Compound B2, (±)-1-Methyl-3-phenyletynyl-quinuclidin-2-ene iodide salt] yielded an IC50 [1, 3] of 600 nM and an IC50 [2] of 100 nM.
